Source: patent US5441987A, “Antifungal agent” (Merck & Co., Inc., priority 1994, dated 1995)
In brackets after ≈: the same amount, converted by molar mass.

Assays:
[1] = test system: Cryptococcus neoformans (MY 1051); assay: broth microdilution MIC/MFC assay; conditions: for MFC: 48 h, read-out: Minimum Fungicidal Concentration (MFC); for MIC: read-out: Minimum Inhibitory Concentration (MIC)
Protocol: (§1) In the microbroth dilution assay, microorganisms were selected by streaking a yeast culture on Sabouraud dextrose agar (SDA) incubating for 24-48 hours at 35°-37° C., thereafter selected 3 to 5 characteristic colonies and transferring to a fresh plate and incubating under similar conditions. From the regrowth, 3 to 5 colonies were selected and suspended in 10 milliliters of YM broth (Difco) and incubated for 4 hours at 35°-37° C. shaking at 225 rpm. The 4 hour broth cultures were adjusted optically to 86% transmission resulting in a concentration of 1-5 X 10^6 cfu/ml which was further diluted 1:100 in YNBD (yeast nitrogen base with 1% dextrose) to obtain a concentration of 1-5 X 10^4 cfu/ml for use as inocula.
(§2) The compounds in column 1 were then serially diluted two-fold to yield concentrations from 128 μg/ml to 0.6 μg/ml.
(§3) The plates containing the diluted compounds were then inoculated with 75 μl/well of the appropriate microorganism and incubated for 48 hours at 35°-37° C. with MIC (minimum inhibitory concentration) determinations carried out after 24 hours of incubation. Growth and sterility controls for each organism and sterility checks for the compounds also were carried out.
(§4) After recording MICs at 24 hours, the microtiter plates were shaken gently to resuspend the cells. A 1.5 μl sample was transferred from each well of the 96-well microtiter plate to a single reservoir inoculum plate containing SDA. The inoculated SDA and corresponding microtiter plates were incubated for 24 hours at 35°-37° C. For Cryptococus neoformans, SDA plates were inoculated at 48 hours after recording MICs and incubated 48 hours before reading the MFC. MFC is the lowest concentration of compound at which either no growth or growth of ≤4 colonies occur.

[2] = test system: C. tropicalis (MY 1012); assay: broth microdilution MIC/MFC assay; conditions: Candida tropicalis; for MIC: 24 h, read-out: Minimum Inhibitory Concentration (MIC); for MFC: read-out: Minimum Fungicidal Concentration (MFC)
Protocol: as §1, §2, §3, §4

[3] = test system: C. neoformans (MY 2061); assay: broth microdilution MIC/MFC assay; conditions: Cryptococcus neoformans; for MFC: 48 h, read-out: Minimum Fungicidal Concentration (MFC); for MIC: read-out: Minimum Inhibitory Concentration (MIC)
Protocol: as §1, §2, §3, §4

[4] = test system: C. pseudotropicalis (MY 2099); assay: broth microdilution MIC/MFC assay; conditions: Kluyveromyces marxianus; for MIC: 24 h, read-out: Minimum Inhibitory Concentration (MIC); for MFC: read-out: Minimum Fungicidal Concentration (MFC)
Protocol: as §1, §2, §3, §4

[5] = test system: C. parapsilosis (MY 1010); assay: broth microdilution MIC/MFC assay; conditions: Lodderomyces parapsilosis; for MIC: 24 h, read-out: Minimum Inhibitory Concentration (MIC); for MFC: read-out: Minimum Fungicidal Concentration (MFC)
Protocol: as §1, §2, §3, §4

[6] = test system: C. neoformans (MY 1146); assay: broth microdilution MIC/MFC assay; conditions: Cryptococcus neoformans; for MFC: 48 h, read-out: Minimum Fungicidal Concentration (MFC); for MIC: read-out: Minimum Inhibitory Concentration (MIC)
Protocol: as §1, §2, §3, §4

[7] = test system: C. neoformans (MY 2062); assay: broth microdilution MIC/MFC assay; conditions: Cryptococcus neoformans; for MFC: 48 h, read-out: Minimum Fungicidal Concentration (MFC); for MIC: read-out: Minimum Inhibitory Concentration (MIC)
Protocol: as §1, §2, §3, §4

[8] = test system: A. fumigatus (5669); assay: broth microdilution MIC assay; conditions: Aspergillus fumigatus, read-out: Minimum Inhibitory Concentration (MIC)
Protocol: as §1, §2, §3

[9] = test system: C. albicans (MY 1750); assay: broth microdilution MIC/MFC assay; conditions: Candida albicans; for MFC: read-out: Minimum Fungicidal Concentration (MFC)
Protocol: as §1, §2, §3, §4

[10] = test system: Aspergillus fumigatus (MF 4839); assay: broth microdilution MIC assay; conditions: read-out: Minimum Inhibitory Concentration (MIC)
Protocol: as §1, §2, §3

[11] = test system: A. fumigatus (5668); assay: broth microdilution MIC assay; conditions: Aspergillus fumigatus, read-out: Minimum Inhibitory Concentration (MIC)
Protocol: as §1, §2, §3

[12] = test system: Saccharomyces cerevisiae (MY 1976); assay: broth microdilution MIC/MFC assay; conditions: for MIC: 24 h, read-out: Minimum Inhibitory Concentration (MIC)
Protocol: as §1, §2, §3, §4

[13] = test system: C. guillermondii (MY 1019); assay: broth microdilution MIC/MFC assay; conditions: Meyerozyma guilliermondii; for MIC: 24 h, read-out: Minimum Inhibitory Concentration (MIC); for MFC: read-out: Minimum Fungicidal Concentration (MFC)
Protocol: as §1, §2, §3, §4

[14] = test system: Candids albicans (MY 1028); assay: broth microdilution MIC/MFC assay; conditions: Candida albicans; for MFC: read-out: Minimum Fungicidal Concentration (MFC)
Protocol: as §1, §2, §3, §4

[15] = test system: Botrytis cinerea; assay: in vivo protectant assay, grey mold on pepper; conditions: 50 ppm, evaluated after four days
[16] = test system: filamentous fungi; assay: filter paper disc inhibition zone assay, filamentous fungi; format: cell-based; conditions: 25 μl/disc, 28° C. or 37° C., 24 hours
Protocol: Compound I is also useful for inhibiting the growth of filamentous fungi. Such use may be illustrated in the following tests with Aspergillus fumigatus, Aspergillus niger, Aspergillus flavus, Fusarium oxysporum, Rhizomicor miehei, Ustilago zeae and the like. Inocula for filamentous fungi are prepared by scraping the surface of stock plates maintained on potato dextrose agar with a moistened sterile dacron swab. The spores and mycelia are then suspended in 10 milliliters of sterile potato dextrose broth and adjusted to 70 percent transmission at 660 nm. The samples to be tested for production of antifungal agent are applied to 6.2 mm. filter paper discs (25 microliter/disc) and air dried at 24° C. When the sample to be tested is crude broth, it may be centrifuged prior to application. The discs bearing the material to be tested are then applied employing sterile conditions to the seeded assay plates and the samples […] 25 percent sterile aqueous dimethylsulfoxide (25 μl/disc). The assay plates are then incubated at either 28° C. or 37° C. for 24 hours. Following incubation, the inhibition zones are measured. Growths are also noted as to appearance.

[17] = test system: Puccinia recondita; assay: in vivo protectant assay, wheat leaf rust on wheat; conditions: 50 ppm, evaluated after 10-14 days
[18] = test system: Plasmopara viticola; assay: in vivo protectant assay, downy mildew on grape; conditions: 50 ppm, evaluated after 12 days
[19] = test system: Alternaria solani; assay: in vivo protectant assay, early blight on tomato; conditions: 50 ppm, evaluated after four days
[20] = test system: Phytophthora infestans; format: in vivo; conditions: 50 ppm, tomato, evaluated after four days
[21] = 24 h, read-out: Minimum Inhibitory Concentration (MIC)

Row | SMILES | MFC [1] [mg/L] | MIC [1] [mg/L] | MIC [2] [mg/L] | MFC [2] [mg/L] | MFC [3] [mg/L] | MIC [3] [mg/L] | MIC [4] [mg/L] | MFC [4] [mg/L] | MIC [5] [mg/L] | MFC [5] [mg/L] | MFC [6] [mg/L] | MIC [6] [mg/L] | MFC [7] [mg/L] | MIC [7] [mg/L] | MIC [8] [mg/L] | MFC [9] [mg/L] | MIC [10] [mg/L] | MIC [11] [mg/L] | MIC [12] [mg/L] | MIC [13] [mg/L] | other results
1 | C[C@@H]1[C@H](O)[C@@H](C)/C=C/C=C/C=C/C=C/C=C/C=C/C=C/[C@H](O[C@@H]2O[C@H](C)[C@@H](O)[C@H](N)[C@@H]2O)C[C@@H]2O[C@](O)(C[C@@H](O)C[C@@H](O)[C@H](O)CC[C@@H](O)C[C@@H](O)CC(=O)O[C@H]1C)C[C@H](O)[C@H]2C(=O)O [Amphotericin B, reference compound] | 4 (≈ 4.33 µM) | 2 (≈ 2.16 µM) | 64 (≈ 69.3 µM) | 32 (≈ 34.6 µM) | 2 (≈ 2.16 µM) | 2 (≈ 2.16 µM) | 4 (≈ 4.33 µM) | 4 (≈ 4.33 µM) | 2 (≈ 2.16 µM) | 2 (≈ 2.16 µM) | 2 (≈ 2.16 µM) | 2 (≈ 2.16 µM) | 2 (≈ 2.16 µM) | 2 (≈ 2.16 µM) | 4 (≈ 4.33 µM) | 2 (≈ 2.16 µM) | 4 (≈ 4.33 µM) | 4 (≈ 4.33 µM) | 1 (≈ 1.08 µM) | 2 (≈ 2.16 µM) | MFC [13]: 4 mg/L (≈ 4.33 µM); MFC [14]: 2 mg/L (≈ 2.16 µM)
2 | CCCCCCC(C)C1=C(O)C(=O)C2C(O)C(C)CC(O)C2C1(C)C(=O)CCO (centres unmarked) [Compound I] | 16 (≈ 39 µM) | 8 (≈ 19.5 µM) | 32 (≈ 77.9 µM) | 32 (≈ 77.9 µM) | 16 (≈ 39 µM) | 16 (≈ 39 µM) | 16 (≈ 39 µM) | 32 (≈ 77.9 µM) | 64 (≈ 156 µM) | 64 (≈ 156 µM) | 32 (≈ 77.9 µM) | 32 (≈ 77.9 µM) | 32 (≈ 77.9 µM) | 16 (≈ 39 µM) | 32 (≈ 77.9 µM) | 32 (≈ 77.9 µM) | 32 (≈ 77.9 µM) | 32 (≈ 77.9 µM) | 16 (≈ 39 µM) | 16 (≈ 39 µM) | control of Botrytis cinerea [15]: Moderate control; growth inhibition of fungal organisms (inhibition zones) [16]: effectively inhibit growth; control of Puccinia recondita [17]: Moderate control; control of Plasmopara viticola [18]: ≤ 85%; MIC [9, 21]: 64 mg/L (≈ 156 µM); MFC ([12]; read-out: Minimum Fungicidal Concentration (MFC)): 16 mg/L (≈ 39 µM); MFC [13]: 16 mg/L (≈ 39 µM); control of Alternaria solania [19]: Moderate control; control of Phytophthora infestans [20]: up to 90%; MIC [14, 21]: 32 mg/L (≈ 77.9 µM); MFC [14]: 32 mg/L (≈ 77.9 µM)
